{"source": "patent US20070037887A1", "about": "“Blockade of mtor to prevent a hormonal adaptive response” (University of Virginia Patent Foundation, priority 2003, published 2007)", "key": {"[1]": {"system": "ERK1/2 MAP kinase, Akt, p70 S6 kinase, PHAS-I phosphorylation in MCF-7 cells", "test": "Western analysis of serum-stimulated kinase phosphorylation, MCF-7 cells", "type": "cell-based, human", "conditions": "FTS 24 h", "protocol": "FIGS. 7A-7D represent data showing the effect of FTS on serum-stimulated activation of MAP kinase, PI3 kinase, and mTOR. Subconfluent MCF-7 and LTED cells grown in 60 mm dishes were treated with FTS in their culture media for 24 h. Cells were then harvested and cell lysate prepared. Phosphorylation of ERK1/2 MAP kinase (FIG. 7A), Akt at Ser^473 (FIG. 7B), p70 S6 kinase at Thr^389 (FIG. 7C), and PHAS-I at Ser^65 (FIG. 7D) was detected by Western analysis using specific antibodies and quantitated by densitometry scanning.\nThe levels of phosphorylated ERK1/2 MAPK, Akt (Ser^473), p70S6K (Thr^389) and PHAS-1 (Ser^65) were consistently elevated in LTED cells compared to those in wild type MCF-7 cells as indicated by Western blot analysis using specific antibodies against phosphorylated ERK 1/2 (FIG. 7A), Akt (FIG. 7B), p70S6 kinase (FIG. 7C) and PHAS-1 (FIG. 7D). […] (FIGS. 7C & 7D)."}, "[2]": {"system": "ERK1/2, Akt, p70S6K, PHAS-1 phosphorylation in LTED cells", "test": "EGF induced activation of MAP kinase, PI3 kinase and mTOR in LTED cells (Western)", "type": "cell-based, human", "text": "FIG. 8 represents data showing the effect of FTS on EGF induced activation of MAP kinase, PI3 kinase, and mTOR in LTED cells. […] Cells were then harvested and cell lysate prepared. Phosphorylated and total kinases were detected by Western analysis using specific antibodies.\nThe effects of the specific growth factors, EFG and IGF-1 were also examined. Serum contains multiple growth factors that activate MAP kinase and PI3 kinase either by recruitment and activation of the common mediator Ras (such as EGF) or through a direct mechanism (such as IGF-1). To further explore the site of action of FTS, EGF-induced activation of MAPK and PI3 kinase was first examined. Specific inhibitors for PI3 kinase and mammalian target of rapamycin (mTOR) were included for comparison. […] One-hour treatment was chosen as the time point allowing most efficient comparisons among molecules."}, "mTOR": {"target": "T1, mTOR (Rattus norvegicus, UniProt P42346)", "T1 construct": "expressed in transfected cells; host or cells: 293T", "test": "Immune complex assay of mTOR activity, compound added to extracts or immune complexes", "type": "biochemical", "conditions": "for PHAS-I kinase activity of AU1-mTOR: extracts incubated with increasing concentrations", "protocol": "293T cells were transfected with expression vectors for AU1-epitope tagged mTOR, HA-tagged raptor, and HA-tagged mLST8. After 24 h, the overexpressed mTOR was immunoprecipitated with AU1 antibodies, and immune complexes were incubated with increasing concentrations of FTS in a reaction mixture containing 2 mM [γ^32P] ATP (250 μCi/ml), 20 mM MnCl2, and 0.1 mg/ml purified recombinant histidine-tagged PHAS-1. After fifteen minutes the reaction was stopped by adding SDS sample buffer, and samples were subjected to SDS-PAGE. The amount of ^32P incorporated into PHAS-I was determined and expressed as a percentage of that incorporated in the absence of FTS. Mean values±the half the range of two experiments are presented.\n(§1) 293T cells were transfected with pcDNA3 alone (Vec.) or with a combination of pcDNA3AU1-mTOR, pcDNA33HA-Raptor, and pcDNA33HA-mLST8. Extracts of the cells were incubated with increasing concentrations of FTS before AU1-mTOR was immunoprecipated. Samples of the immune complexes were incubated with [γ-^32P]ATP and recombinant [His^6]PHAS-I, then subjected to SDS-PAGE and transferred to an immobilon membrane. After obtaining a phosphorimage of the membrane to detect ^32P-PHAS-I, the membrane was immunoblotted with PThr^36/45 antibodies. Other samples of the immune complexes were subjected to SDS-PAGE and immunoblots were prepared with antibodies to the HA epitope or to mTOR (see FIG. 13A). Extracts of nontransfected 293T cells were incubated with increasing concentrations of FTS before mTOR was immunoprecipated with mTAb1. A control immunoprecipitation was conducted using nonimmune IgG (NI). Immune complexes were subjected to SDS-PAGE and immunoblots were prepared with antibodies to mLST8, mTOR, and raptor.\n(§2) Samples of extracts from 293T cells overexpressing AU1-mTOR, HA-raptor, and HA-mLST8 were incubated for 1 h with increasing concentrations of FTS (●, ▴, ▪) or GTS (∘, Δ, □) before immunoprecipitations were conducted with anti-AU1 antibodies. mTOR kinase activity (●, ∘) was determined by measuring ^32P incorporation into [His^6]PHAS-I in immune complex kinases assays performed with [γ-^32P]ATP (see FIG. 14A). The relative amounts of HA-raptor (▴, Δ) and HA-mLST8 (▪, □) that coimmunoprecipitated with AU1-mTOR were determined after immunoblotting with anti-HA antibodies (see FIG. 14B). The results (mean values+S.E. from 5 experiments) are expressed as percentages of the mTOR activity (FIG. 14A) or coimmunoprecipitating proteins (FIG. 14B) from samples incubated without FTS or GTS, and have been corrected for the amounts of AU1-mTOR immunoprecipitated.\n(§3) 293T cells were transfected with pcDNA3 alone (Vec.) or with a combination of pcDNA3AU1-mTOR, pcDNA33HARaptor, and pcDNA33HA-mLST8. AU1-mTOR was immunoprecipitated and samples of the washed immune complexes were at incubated […] for 30 min with no inhibitors or with the following: caffeine (1 mM), FTS (50 μM), LY294002 (10 μM), rapamycin (1 μM) plus FKBP12 (10 μM), and 1 μM wortmannin. To prevent destruction of wortmannin, incubations were conducted in the absence of thiol reducing agents. Samples of the immune complexes were incubated for 10 min with 10 mM MnCl2, 1 mM [γ-^32P]ATP, and 50 μg/ml [His^6]PHAS-I to assess mTOR activity. Other samples were rinsed twice, subjected to SDS-PAGE, and immunoblotted with anti-HA and anti-AU1 antibodies to determine the amounts of HA-raptor and HA-mLST8 associated with AU1-mTOR. The relative amounts of ^32P incorporated into PHAS-I were determined by phosphorimaging (see FIG. 15B)."}, "mTOR-raptor complex": {"target": "T2, mTOR-raptor complex (Rattus norvegicus, UniProt P42346+Q8N122)", "T2 construct": "rows headed: amount of HA-raptor that coimmunoprecipitated with AU1-mTOR; other: extracts incubated with increasing concentrations; amount of HA-raptor that coimmunoprecipitated with AU1-mTOR; other: overexpressed in 293T cells, increasing concentrati; half maximal effect on raptor dissociation from mTOR; other: AU1-mTOR and HA-raptor overexpressed in 293T cells, 1 h; association of AU1-mTOR and HA-rapto", "test": "Coimmunoprecipitation of raptor with mTOR, compound added to cell extracts or immune complexes", "type": "binding", "conditions": "for amount of HA-raptor that coimmunoprecipitated with AU1-mTOR: extracts incubated with increasing concentrations", "protocol": "as §1, §2, §3"}, "[3]": {"conditions": "pretreatment FTS 1 h, LY 294002 or rapamycin 3 h, EGF 1 μg/ml 1 h"}, "[4]": {"conditions": "FTS 50 μM, comparison with other mTOR inhibitors"}}, "data": [{"smiles": "CC(C)=CCC/C(C)=C/CC/C(C)=C/CSc1ccccc1C(=O)O", "note": "[FTS, farnesylthiosalicylic acid]", "values": [{"measurement": "fall of phosphorylated ERK1/2 and 4E BP 1", "setting": "[1]", "result": "approximately 50%"}, {"measurement": "p70 S 6 kinase and phospho-AKT", "setting": "[1]", "result": "inconsistent decrements"}, {"measurement": "growth factor induced Thr229 phosphorylation of p70 S6K", "setting": "[2]; EGF or IGF-1", "result": "very limited, if any, inhibition"}, {"measurement": "EGF-induced phosphorylation of p70S6K at Thr389", "setting": "[2]; FTS even at 50 μM, EGF 1 μg/ml 1 h", "result": "completely abolished"}, {"measurement": "EGF-induced ERK1/2 MAP kinase phosphorylation", "setting": "[2]; [3]", "result": "did not inhibit"}, {"measurement": "EGF-induced phosphorylation of Akt at Ser473", "setting": "[2]; [3]", "result": "neither FTS nor rapamycin blocked"}, {"measurement": "PHAS-1 Ser65 phosphorylation", "setting": "[2]; serum starved 24 h, EGF", "result": "dose-dependently inhibited"}, {"measurement": "concentration at which the effect on mTOR kinase activity could be seen", "setting": "mTOR", "result": 25, "unit": "µM"}, {"measurement": "concentration of maximal effect on mTOR kinase activity", "setting": "mTOR", "result": 100, "unit": "µM"}, {"measurement": "mTOR activity", "setting": "mTOR; [4]", "result": "decreased"}, {"measurement": "PHAS-I kinase activity of AU1-mTOR", "setting": "mTOR", "result": "progressively decreased"}, {"measurement": "concentrations needed to inhibit mTOR activity in vitro relative to intact cells", "setting": "mTOR; extracts vs intact cells", "result": "Approximately four times lower"}, {"measurement": "ability of mTOR to phosphorylate a substrate specific to mTOR", "setting": "mTOR; recombinant mTOR immunoprecipitated from transfected cells", "result": "completely blocked"}, {"measurement": "association of AU1-mTOR and HA-raptor", "setting": "mTOR-raptor complex; [4]", "result": "decreased"}, {"measurement": "amount of HA-raptor that coimmunoprecipitated with AU1-mTOR", "setting": "mTOR-raptor complex", "result": "decreased"}]}, {"smiles": "CC(C)=CCC/C(C)=C/CSc1ccccc1C(=O)O", "note": "[GTS, S-geranylthiosalicylic acid, reference compound]", "values": [{"measurement": "PHAS-I kinase activity of AU1-mTOR", "setting": "mTOR", "result": "progressive decreases"}, {"measurement": "concentrations for effects on AU1-mTOR activity and AU1-mTOR/HA-raptor association relative to FTS", "setting": "mTOR; extracts of transfected cells", "result": "approximately ten times higher"}, {"measurement": "amount of HA-raptor that coimmunoprecipitated with AU1-mTOR", "setting": "mTOR-raptor complex", "result": "progressive decreases"}]}]}
